The supplement of paper PMC5579334
± gives the standard deviation of the averaged measurements.

Columns and labels:
[1] = test system: STS26T; assay: drug sensitivity score (DSS, CellTiter-Glo viability, 72 h) (DSS (dimensionless)); higher = more sensitive; extreme values may be limits of the assay
Summary of the method: (§1)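 Viability was scored by CellTiter-Glo ATP luminescence, scaled from vehicle to positive-control wells, with duplicates averaged where present. The cells, MPNST lines and primary human Schwann cells at 750–1000 per well, sat 72 h at 37 °C, 5% CO2, in 384-well plates preprinted with each compound at five concentrations in 10-fold steps. Four-parameter logistic fits were run on the data. These fits give drug sensitivity score and relative IC50 censored at the top concentration, and percent inhibition is reported at the top concentration.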

[2] = test system: ST8814; assay: as above
Summary of the method: as §1

[3] = test system: S462; assay: as above
Summary of the method: as §1

[4] = test system: HS-PSS; assay: as above
Summary of the method: as §1

[5] = test system: HSC1 (primary human Schwann cells); assay: as above
Summary of the method: as §1

[6] = test system: S1507-2; assay: as above
Summary of the method: as §1

[7] = test system: YST-1; assay: as above
Summary of the method: as §1

[8] = test system: HSC2 (primary human Schwann cells); assay: as above
Summary of the method: as §1

[9] = test system: HS-Sch-2; assay: as above
Summary of the method: as §1

[10] = test system: STS26T; assay: % inhibition of CellTiter-Glo viability at highest tested concentration (72 h), relative to DMSO and benzethonium chloride controls; higher = more inhibition
Summary of the method: as §1

[11] = test system: ST8814; assay: as above
Summary of the method: as §1

[12] = test system: S462; assay: as above
Summary of the method: as §1

[13] = test system: HS-PSS; assay: as above
Summary of the method: as §1

[14] = test system: HSC1 (primary human Schwann cells); assay: as above
Summary of the method: as §1

[15] = test system: S1507-2; assay: as above
Summary of the method: as §1

[16] = test system: YST-1; assay: as above
Summary of the method: as §1

[17] = test system: HSC2 (primary human Schwann cells); assay: as above
Summary of the method: as §1

[18] = test system: HS-Sch-2; assay: as above
Summary of the method: as §1

[19] = test system: STS26T; assay: drug sensitivity score (DSS, CellTox-Green cytotoxicity, 72 h) (DSS (dimensionless)); higher = more cytotoxic; extreme values may be limits of the assay
Summary of the method: (§2)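 MPNST cell lines and primary human Schwann cells were incubated 72 h at 37 °C in 384-well plates holding five 10-fold compound dilutions. CellTox-Green was added before seeding at a final 1:1000 dilution and reported fluorescence from DNA released by disrupted cells. Signals were scaled to vehicle and positive-control wells, and cultures failing plate quality control were dropped. Drug sensitivity score and relative IC50 come from four-parameter logistic fits, with IC50 censored at the top concentration.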

[20] = test system: ST8814; assay: as above
Summary of the method: as §2

[21] = test system: HS-PSS; assay: as above
Summary of the method: as §2

[22] = test system: HSC1 (primary human Schwann cells); assay: as above
Summary of the method: as §2

[23] = test system: S1507-2; assay: as above
Summary of the method: as §2

[24] = test system: HSC2 (primary human Schwann cells); assay: as above
Summary of the method: as §2

SMILES	drug sensitivity score [1]	drug sensitivity score [2]	drug sensitivity score [3]	drug sensitivity score [4]	drug sensitivity score [5]	drug sensitivity score [6]	drug sensitivity score [7]	drug sensitivity score [8]	drug sensitivity score [9]	% inhibition [10]	% inhibition [11]	% inhibition [12]	% inhibition [13]	% inhibition [14]	% inhibition [15]	% inhibition [16]	% inhibition [17]	% inhibition [18]	drug sensitivity score [19]	drug sensitivity score [20]	drug sensitivity score [21]	drug sensitivity score [22]	drug sensitivity score [23]	drug sensitivity score [24]
Oc1ncnc2[nH]ncc12 [Allopurinol] (max concentration tested 10000 nM)	0	0	0	0	0	0	0	0	0	6.65%	-3.79%	-1.67 ± 0.31%	6.72%	5.09%	-4.6 ± 1.9%	8.22%	1.63%	8.43%	0	0	0	0	0	0
Cc1nc(C(=O)NCC(=O)O)c(O)c2ccc(Oc3ccccc3)cc12 [FG-4592] (max concentration tested 10000 nM)	0	0	0	5.17	0.0901	0	0	0.0248	5.13	0.0946%	7.03%	-7 ± 5.2%	49%	13.3%	-0.77 ± 1.2%	-7.68%	12.3%	74.7%	0	0	0	0	0	0
CN(C)/N=N/c1[nH]cnc1C(N)=O [Dacarbazine] (max concentration tested 10000 nM)	1.17	0	0.065 ± 0.092	0	0	0	0	0	0	23.5%	3.31%	8.66 ± 8.8%	7.14%	9.74%	-5.83 ± 6.6%	-4.08%	-1.82%	7.05%	0	0	0	0	0.828 ± 1.2	0
Cc1c(Cn2c(C)nc3c(C(=O)O)cc(N4CCOCC4)cc32)cccc1C(F)(F)F (max concentration tested 10000 nM)	0.72	0.197	0	1.06	0	3.59 ± 0.27	0	0	0	17.6%	11.8%	3.26 ± 4.3%	19.4%	4.46%	33.6 ± 5.3%	4.11%	5.2%	8.95%	0	0	0	0	0	0
CN(N=O)C(=O)N[C@@H]1[C@@H](O)[C@H](O)[C@@H](CO)O[C@@H]1O [Streptozocin] (max concentration tested 10000 nM)	0	0	0	1.36	0	0	0.32	0	0.37	-0.477%	6.38%	-6.63 ± 1.8%	7.67%	-2.68%	-6.55 ± 6.7%	9.13%	-3.21%	15.2%	0	0	0	0	0.108 ± 0.15	0
CCNC(=O)c1noc(-c2cc(C(C)C)c(O)cc2O)c1-c1ccc(CN2CCOCC2)cc1 [NVP-AUY922] (max concentration tested 1000 nM)	18.3	19.4	19.7 ± 3.3	–	21.6	20.5 ± 1.9	–	22.6	–	92.2%	98.2%	98 ± 1.7%	–	98.2%	97.933 ± 0.086%	–	97.1%	–	11.4	8.57	–	19.6	20.6 ± 3.5	20.4
CCCC(CCC)C(=O)O [Valproic acid aq] (max concentration tested 1000000 nM)	1.5	3.83	2.44 ± 0.31	–	4.34	1.59 ± 0.097	–	4.4	–	28.3%	44.4%	31.3 ± 17%	–	68.2%	20.7 ± 3.2%	–	59%	–	0	0.307	–	0	0	0
